Legend:
[1] = molecular target: Protein Tyrosine Kinase, Insulin Receptor (Homo sapiens, UniProt P06213); assay: Safety screen; assay type: biochemical
Procedure: (§1) The kinase profiler was performed by the company Eurofins (Discovery, Panlab and Cerep).

[2] = molecular target: Angiotensin AT1 (Homo sapiens, UniProt P30556); assay: Safety screen; assay type: binding
Procedure: (§2) Blood cell counts, kinase profiler, safety screen, bacterial cytotoxicity, Ames, micronucleus assays were performed by the company Eurofins (France). The kinase profiler was performed by the company Eurofins (Discovery, Panlab and Cerep).

[3] = molecular target: Dopamine D1 (Homo sapiens, UniProt P21728); assay: Safety screen; assay type: binding
Procedure: (§3) Blood cell counts, kinase profiler, safety screen, bacterial cytotoxicity, Ames, micronucleus assays were performed by the company Eurofins (France).

[4] = molecular target: Histamine H1 (Homo sapiens, UniProt P35367); assay: Safety screen; assay type: binding
Procedure: as §2

[5] = molecular target: Melanocortin MC1 (Homo sapiens, UniProt Q01726); assay: Safety screen; assay type: binding
Procedure: as §3

[6] = molecular target: Progesterone PR-B (Homo sapiens, UniProt P06401); assay: Safety screen; assay type: binding
Procedure: as §2

[7] = molecular target: Axl(h) (Homo sapiens, UniProt P30530); assay: Kinase Profiler; assay type: biochemical
Procedure: as §2

[8] = molecular target: BRK(h) (Homo sapiens, UniProt Q13882); assay: Kinase Profiler; assay type: biochemical
Procedure: as §2

[9] = molecular target: CaMKK2(h) (Homo sapiens, UniProt Q96RR4); assay: Kinase Profiler; assay type: biochemical
Procedure: as §1

[10] = molecular target: CDK17/cyclinY(h) (Homo sapiens, UniProt Q00537); assay: Kinase Profiler; assay type: biochemical
Procedure: as §2

[11] = molecular target: CDKL1(h) (Homo sapiens, UniProt Q00532); assay: Kinase Profiler; assay type: biochemical
Procedure: as §1

[12] = molecular target: CDKL3(h) (Homo sapiens, UniProt Q8IVW4); assay: Kinase Profiler; assay type: biochemical
Procedure: as §1

[13] = molecular target: ChaK1(h) (Homo sapiens, UniProt Q96QT4); assay: Kinase Profiler; assay type: biochemical
Procedure: as §1

[14] = molecular target: CLK4(h) (Homo sapiens, UniProt Q9HAZ1); assay: Kinase Profiler; assay type: biochemical
Procedure: as §1

[15] = molecular target: cKit(V654A)(h) (Homo sapiens, UniProt P10721, V654A); assay: Kinase Profiler; assay type: biochemical
Procedure: as §2

[16] = molecular target: EphA3(h) (Homo sapiens, UniProt P29320); assay: Kinase Profiler; assay type: biochemical
Procedure: as §2

[17] = molecular target: Fes(h) (Homo sapiens, UniProt P07332); assay: Kinase Profiler; assay type: biochemical
Procedure: as §1

[18] = molecular target: IRR(h) (Homo sapiens, UniProt P14616); assay: Kinase Profiler; assay type: biochemical
Procedure: as §2

[19] = molecular target: MAP4K4(h) (Homo sapiens, UniProt O95819); assay: Kinase Profiler; assay type: biochemical
Procedure: as §1

[20] = molecular target: MARK1(h) (Homo sapiens, UniProt Q9P0L2); assay: Kinase Profiler; assay type: biochemical
Procedure: as §1

[21] = molecular target: MSSK1(h) (Homo sapiens, UniProt Q9UPE1); assay: Kinase Profiler; assay type: biochemical
Procedure: as §2

[22] = molecular target: MuSK(h) (Homo sapiens, UniProt O15146); assay: Kinase Profiler; assay type: biochemical
Procedure: as §1

[23] = molecular target: PKCβII(h) (Homo sapiens, UniProt P05771); assay: Kinase Profiler; assay type: biochemical
Procedure: as §1

[24] = molecular target: PKCμ(h) (Homo sapiens, UniProt Q15139); assay: Kinase Profiler; assay type: biochemical
Procedure: as §1

[25] = molecular target: SNRK(h) (Homo sapiens, UniProt Q9NRH2); assay: Kinase Profiler; assay type: biochemical
Procedure: as §1

[26] = molecular target: TGFBR1(h) (Homo sapiens, UniProt P36897); assay: Kinase Profiler; assay type: biochemical
Procedure: as §2

[27] = molecular target: Tie2(Y897S)(h) (Homo sapiens, UniProt Q02763, Y897S); assay: Kinase Profiler; assay type: biochemical
Procedure: as §1

[28] = molecular target: TLK2(h) (Homo sapiens, UniProt Q86UE8); assay: Kinase Profiler; assay type: biochemical
Procedure: as §1

[29] = molecular target: ULK1(h) (Homo sapiens, UniProt O75385); assay: Kinase Profiler; assay type: biochemical
Procedure: as §2

[30] = molecular target: WNK1(h) (Homo sapiens, UniProt Q9H4A3); assay: Kinase Profiler; assay type: biochemical
Procedure: as §1

[31] = molecular target: PI3K (p110a(E542K)/p85a)(h) (Homo sapiens, UniProt P42336, E542K); assay: Kinase Profiler; assay type: biochemical
Procedure: as §1

[32] = molecular target: CDK13/cyclinK(h) (Homo sapiens, UniProt Q14004)
Procedure: as §2

[33] = molecular target: RAC1 (Homo sapiens, UniProt P63000); assay: Surface plasmon resonance; assay type: binding; parameters: purchased Cytoskeleton RH01
Procedure: SPR immobilization was performed at 25°C. RAC1, RHOA and CDC42 purified proteins (respectively […] and CD01, Cytoskeleton) were diluted to 5 μg/mL in Na^+ acetate buffer (pH 5.0) and injected into sensor chip CM5 (GE Healthcare) in a Biacore T200 (GE Healthcare) that was activated with NHS/EDC buffer. Approximately 5,000 response units of the purified protein were immobilized on the biosensor chip. Biosensor chips were blocked by an injection of 1 mM ethanolamine (pH 8.5). SPR analysis was performed at 25°C in HBSEP running buffer (5% DMSO) with or without EDTA (20 mM). A41 compound was injected over the RAC1, RHOA or CDC42 functionalized surface in concentration range from 0 to 25μM. Association and dissociation phases were monitored during 60s and 300s, respectively.

Sequence of PKCμ(h) (Q15139 whole entry): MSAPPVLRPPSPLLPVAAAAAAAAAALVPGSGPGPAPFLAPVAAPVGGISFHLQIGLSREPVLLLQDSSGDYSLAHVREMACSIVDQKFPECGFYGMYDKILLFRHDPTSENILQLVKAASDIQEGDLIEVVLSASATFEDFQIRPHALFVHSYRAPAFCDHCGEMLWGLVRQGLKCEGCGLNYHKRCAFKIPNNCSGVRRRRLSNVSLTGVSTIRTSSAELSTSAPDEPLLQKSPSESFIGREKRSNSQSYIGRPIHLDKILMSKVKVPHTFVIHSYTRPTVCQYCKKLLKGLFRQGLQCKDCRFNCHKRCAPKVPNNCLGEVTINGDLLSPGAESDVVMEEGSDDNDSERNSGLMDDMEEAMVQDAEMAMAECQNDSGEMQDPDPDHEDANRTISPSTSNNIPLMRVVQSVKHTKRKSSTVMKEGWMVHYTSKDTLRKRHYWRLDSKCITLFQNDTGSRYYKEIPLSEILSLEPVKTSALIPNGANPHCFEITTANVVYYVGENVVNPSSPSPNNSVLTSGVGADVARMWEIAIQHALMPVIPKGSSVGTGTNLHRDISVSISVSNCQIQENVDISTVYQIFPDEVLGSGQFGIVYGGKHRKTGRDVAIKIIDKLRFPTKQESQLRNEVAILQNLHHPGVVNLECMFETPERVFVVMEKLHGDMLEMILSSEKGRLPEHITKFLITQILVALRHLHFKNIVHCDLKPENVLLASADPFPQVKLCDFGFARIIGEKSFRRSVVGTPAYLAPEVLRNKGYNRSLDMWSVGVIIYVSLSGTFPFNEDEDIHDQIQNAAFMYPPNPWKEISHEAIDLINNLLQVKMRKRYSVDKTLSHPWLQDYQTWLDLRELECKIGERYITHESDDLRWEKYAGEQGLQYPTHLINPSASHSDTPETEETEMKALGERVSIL
Sequence of PI3K (p110a(E542K)/p85a)(h) (P42336 whole entry E542K): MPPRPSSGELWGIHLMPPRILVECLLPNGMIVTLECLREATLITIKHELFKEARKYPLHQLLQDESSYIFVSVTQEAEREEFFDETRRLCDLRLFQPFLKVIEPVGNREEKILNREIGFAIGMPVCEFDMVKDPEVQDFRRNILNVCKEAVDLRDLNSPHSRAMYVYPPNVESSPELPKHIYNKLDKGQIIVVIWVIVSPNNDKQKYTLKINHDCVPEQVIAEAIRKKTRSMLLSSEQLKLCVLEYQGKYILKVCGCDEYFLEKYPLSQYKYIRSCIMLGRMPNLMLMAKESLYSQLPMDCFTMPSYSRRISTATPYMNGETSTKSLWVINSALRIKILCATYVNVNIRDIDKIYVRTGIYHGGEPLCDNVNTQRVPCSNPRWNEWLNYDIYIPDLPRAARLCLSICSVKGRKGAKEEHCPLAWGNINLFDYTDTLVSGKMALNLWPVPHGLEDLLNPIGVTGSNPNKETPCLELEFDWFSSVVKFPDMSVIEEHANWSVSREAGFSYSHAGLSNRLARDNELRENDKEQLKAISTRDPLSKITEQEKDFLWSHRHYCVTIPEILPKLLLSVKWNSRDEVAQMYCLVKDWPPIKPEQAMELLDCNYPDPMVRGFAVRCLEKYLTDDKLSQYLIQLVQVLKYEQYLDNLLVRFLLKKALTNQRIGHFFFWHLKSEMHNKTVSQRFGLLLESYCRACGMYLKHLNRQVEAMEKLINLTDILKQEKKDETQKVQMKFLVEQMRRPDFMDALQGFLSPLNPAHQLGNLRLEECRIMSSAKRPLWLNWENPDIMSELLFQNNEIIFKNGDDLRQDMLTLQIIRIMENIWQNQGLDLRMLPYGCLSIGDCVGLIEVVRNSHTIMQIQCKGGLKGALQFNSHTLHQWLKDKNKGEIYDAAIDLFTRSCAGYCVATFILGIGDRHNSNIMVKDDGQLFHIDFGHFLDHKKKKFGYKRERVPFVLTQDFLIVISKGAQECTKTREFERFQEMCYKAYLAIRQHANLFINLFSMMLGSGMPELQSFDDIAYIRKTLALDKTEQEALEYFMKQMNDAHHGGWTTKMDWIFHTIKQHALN
Sequence of PI3K (p110a(E542K)/p85a)(h) (P27986 whole entry partner): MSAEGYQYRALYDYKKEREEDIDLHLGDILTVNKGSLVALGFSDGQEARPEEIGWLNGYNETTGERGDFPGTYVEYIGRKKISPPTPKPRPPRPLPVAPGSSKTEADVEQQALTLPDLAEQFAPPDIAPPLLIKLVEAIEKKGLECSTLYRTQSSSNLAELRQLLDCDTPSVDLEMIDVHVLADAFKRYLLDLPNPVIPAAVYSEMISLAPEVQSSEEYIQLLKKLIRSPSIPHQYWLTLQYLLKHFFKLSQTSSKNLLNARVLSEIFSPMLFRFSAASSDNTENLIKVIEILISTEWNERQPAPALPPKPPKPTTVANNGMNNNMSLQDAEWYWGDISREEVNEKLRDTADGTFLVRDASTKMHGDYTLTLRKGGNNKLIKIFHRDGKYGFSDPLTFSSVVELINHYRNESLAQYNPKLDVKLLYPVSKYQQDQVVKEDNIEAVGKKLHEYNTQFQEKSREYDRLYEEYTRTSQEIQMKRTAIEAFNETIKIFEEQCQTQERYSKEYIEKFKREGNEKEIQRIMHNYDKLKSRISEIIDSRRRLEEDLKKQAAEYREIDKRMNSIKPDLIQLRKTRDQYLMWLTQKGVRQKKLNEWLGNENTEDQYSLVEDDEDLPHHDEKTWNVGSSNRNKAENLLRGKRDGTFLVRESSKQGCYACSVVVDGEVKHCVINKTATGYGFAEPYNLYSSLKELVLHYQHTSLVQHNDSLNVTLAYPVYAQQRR
Sequence of Tie2(Y897S)(h) (Q02763 23-1124 Y897S): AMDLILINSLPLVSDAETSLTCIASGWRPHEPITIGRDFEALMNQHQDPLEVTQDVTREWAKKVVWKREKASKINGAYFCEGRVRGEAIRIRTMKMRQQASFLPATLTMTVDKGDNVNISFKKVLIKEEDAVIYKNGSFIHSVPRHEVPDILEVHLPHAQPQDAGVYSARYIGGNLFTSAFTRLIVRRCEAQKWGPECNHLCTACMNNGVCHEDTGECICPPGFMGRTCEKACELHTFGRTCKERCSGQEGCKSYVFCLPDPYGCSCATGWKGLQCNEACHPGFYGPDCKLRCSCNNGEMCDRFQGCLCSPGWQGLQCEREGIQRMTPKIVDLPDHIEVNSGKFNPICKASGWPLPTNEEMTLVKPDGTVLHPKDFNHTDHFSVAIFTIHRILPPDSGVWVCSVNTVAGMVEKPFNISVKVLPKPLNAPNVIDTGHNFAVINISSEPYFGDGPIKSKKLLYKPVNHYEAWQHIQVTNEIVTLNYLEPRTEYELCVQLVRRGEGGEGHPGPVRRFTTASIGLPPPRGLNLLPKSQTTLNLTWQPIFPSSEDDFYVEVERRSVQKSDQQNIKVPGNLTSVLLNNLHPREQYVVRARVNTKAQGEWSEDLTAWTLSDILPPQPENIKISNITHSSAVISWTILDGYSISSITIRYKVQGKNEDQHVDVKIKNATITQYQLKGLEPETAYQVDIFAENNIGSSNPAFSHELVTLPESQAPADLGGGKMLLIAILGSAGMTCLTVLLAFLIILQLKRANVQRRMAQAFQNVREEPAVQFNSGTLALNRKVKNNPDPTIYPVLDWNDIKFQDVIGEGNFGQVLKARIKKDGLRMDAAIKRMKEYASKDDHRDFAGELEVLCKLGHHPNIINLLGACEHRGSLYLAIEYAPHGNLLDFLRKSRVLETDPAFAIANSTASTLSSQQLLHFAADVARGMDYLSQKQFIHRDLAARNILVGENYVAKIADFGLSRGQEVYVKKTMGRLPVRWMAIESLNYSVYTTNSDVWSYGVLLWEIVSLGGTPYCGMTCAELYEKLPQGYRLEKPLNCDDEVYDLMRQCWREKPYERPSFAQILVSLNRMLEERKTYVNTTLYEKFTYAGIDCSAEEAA
Sequence of CDKL3(h) (Q8IVW4 whole entry): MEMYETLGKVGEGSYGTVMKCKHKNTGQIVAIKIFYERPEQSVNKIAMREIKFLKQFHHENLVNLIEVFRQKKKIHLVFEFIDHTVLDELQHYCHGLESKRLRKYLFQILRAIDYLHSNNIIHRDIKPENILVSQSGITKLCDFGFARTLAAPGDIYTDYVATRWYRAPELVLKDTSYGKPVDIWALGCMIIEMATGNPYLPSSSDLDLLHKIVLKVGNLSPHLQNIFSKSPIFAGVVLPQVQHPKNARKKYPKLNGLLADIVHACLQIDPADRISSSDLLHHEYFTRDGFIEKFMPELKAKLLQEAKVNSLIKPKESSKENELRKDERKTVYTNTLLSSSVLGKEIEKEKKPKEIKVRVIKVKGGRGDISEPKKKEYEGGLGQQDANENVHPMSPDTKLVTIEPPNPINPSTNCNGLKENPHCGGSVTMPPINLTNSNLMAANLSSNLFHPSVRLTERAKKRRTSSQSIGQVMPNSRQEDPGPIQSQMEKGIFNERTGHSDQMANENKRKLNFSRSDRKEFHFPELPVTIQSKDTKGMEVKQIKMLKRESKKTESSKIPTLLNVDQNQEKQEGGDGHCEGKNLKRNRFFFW
Sequence of BRK(h) (Q13882 whole entry): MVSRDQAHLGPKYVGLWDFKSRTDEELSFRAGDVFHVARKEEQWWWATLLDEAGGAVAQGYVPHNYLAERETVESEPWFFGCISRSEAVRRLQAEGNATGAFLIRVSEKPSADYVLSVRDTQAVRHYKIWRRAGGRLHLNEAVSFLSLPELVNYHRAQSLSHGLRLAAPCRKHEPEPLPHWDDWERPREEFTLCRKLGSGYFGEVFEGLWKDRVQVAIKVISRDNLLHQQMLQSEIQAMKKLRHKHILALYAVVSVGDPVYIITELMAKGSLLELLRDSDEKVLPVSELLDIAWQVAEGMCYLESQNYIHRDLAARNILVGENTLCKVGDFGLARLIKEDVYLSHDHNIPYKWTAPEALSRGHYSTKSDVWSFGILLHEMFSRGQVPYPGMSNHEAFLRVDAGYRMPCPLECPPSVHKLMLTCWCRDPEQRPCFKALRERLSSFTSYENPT

**Q.** COc1ccc(OC)c(NS(=O)(=O)c2ccc(NC(=O)CCSc3ccc(C)cc3)cc2)c1 [Compound A41] was tested. Which “% inh.” value [1] did it give?
**A.** -25%

**Q.** And the “% inh.” value [2]?
**A.** 17%

**Q.** And the “% inh.” value [3]?
**A.** 17%

**Q.** What about the “% inh.” value [4] of the same compound?
**A.** 41%

**Q.** And the “% inh.” value [5]?
**A.** 14%

**Q.** And the “% inh.” value [6]?
**A.** -16%

**Q.** And the “Activity(%)” value [7]?
**A.** 101%

**Q.** What about the “Activity(%)” value [8] of the same compound?
**A.** 107%

**Q.** And the “Activity(%)” value [9]?
**A.** 110%

**Q.** And the “Activity(%)” value [10]?
**A.** 96%

**Q.** And the “Activity(%)” value [11]?
**A.** 105%

**Q.** And the “Activity(%)” value [12]?
**A.** 103%

**Q.** What about the “Activity(%)” value [13] of the same compound?
**A.** 104%

**Q.** And the “Activity(%)” value [14]?
**A.** 102%

**Q.** What about the “Activity(%)” value [15] of the same compound?
**A.** 99%

**Q.** What about the “Activity(%)” value [16] of the same compound?
**A.** 139%

**Q.** What about the “Activity(%)” value [17] of the same compound?
**A.** 116%

**Q.** And the “Activity(%)” value [18]?
**A.** 118%

**Q.** And the “Activity(%)” value [19]?
**A.** 107%

**Q.** And the “Activity(%)” value [20]?
**A.** 110%

**Q.** And the “Activity(%)” value [21]?
**A.** 125%

**Q.** And the “Activity(%)” value [22]?
**A.** 112%

**Q.** What about the “Activity(%)” value [23] of the same compound?
**A.** 97%

**Q.** And the “Activity(%)” value [24]?
**A.** 104%

**Q.** And the “Activity(%)” value [25]?
**A.** 123%

**Q.** What about the “Activity(%)” value [26] of the same compound?
**A.** 103%

**Q.** What about the “Activity(%)” value [27] of the same compound?
**A.** 109%

**Q.** And the “Activity(%)” value [28]?
**A.** 101%

**Q.** What about the “Activity(%)” value [29] of the same compound?
**A.** 106%

**Q.** What about the “Activity(%)” value [30] of the same compound?
**A.** 96%

**Q.** What about the “Activity(%)” value [31] of the same compound?
**A.** 105%

**Q.** What about the “Activity(%)” value [32] of the same compound?
**A.** 97%

**Q.** And the “binding to RAC1” value ([33]; in the presence of 20 mM EDTA)?
**A.** strongly increased

**Q.** And the Kd ([33]; purified RAC1-GDP, without EDTA)?
**A.** 30 nM
